This is an account of results in ChEMBL document CHEMBL3390848, “Affinity selection and sequence-activity relationships of HIV-1 membrane fusion inhibitors directed at the drug-resistant variants” (Medchemcomm, 2010).

In test [1] the test system is Human immunodeficiency virus 1. Briefly: Antiviral activity against HIV1 NL4-3 harboring gp41 D36G mutant infected in human HeLa cells expressing CD4-LTR-beta-gal assessed as inhibition of viral replication after 48 hrs by MAGI assay. It is filed as functional, organism-based.
In test [2] the test system is Human immunodeficiency virus 1. In words: Thermal stability of HIV1 envelope glycoprotein gp41 His-tagged N-terminal heptad repeat N36-drug complex assessed as thermal unfolding transition state by measuring molar ellipticity at 4 to 90 degC by circular dichroic spectra analysis.
The test system of test [3] is Human immunodeficiency virus 1. In words: Binding affinity to HIV1 His-tagged N-terminal heptad repeat of envelope glycoprotein gp41 assessed as recovery of N36-drug complex after 2 hrs by LC-MS analysis. Further details: concentration or dose not given beside the values.

Residues, ends and D or L forms follow the SMILES beside them.

One may read the EC50 as the midpoint of the concentration-response curve. As a reminder, the Tm is the temperature at which the thermal transition is half complete. `CC[C@H](C)[C@H](NC(=O)[C@H](CC(C)C)NC(=O)[C@H](CCC(=O)O)NC(=O)[C@H](CCC(=O)O)NC(=O)[C@@H](NC(=O)[C@H](CCCCN)NC(=O)[C@H](CCCCN)NC(=O)[C@@H](NC(=O)[C@H](Cc1ccc(O)cc1)NC(=O)[C@H](CCC(=O)O)NC(=O)[C@H](CCC(=O)O)NC(=O)[C@@H](NC(=O)[C@H](CCCCN)NC(=O)[C@H](CCCCN)NC(=O)[C@H](CC(=O)O)NC(=O)[C@H](Cc1c[nH]c2ccccc12)NC(=O)[C@H](CCC(=O)O)NC(=O)[C@H](CCC(=O)O)NC(=O)[C@H](Cc1c[nH]c2ccccc12)NC(C)=O)[C@@H](C)CC)[C@@H](C)O)[C@@H](C)CC)C(=O)N[C@@H](CCCCN)C(=O)N[C@@H](CCCCN)C(=O)N[C@@H](CO)C(=O)N[C@@H](CCC(=O)O)C(=O)N[C@@H](CCC(=O)O)C(=O)N[C@@H](Cc1ccc(O)cc1)C(=O)N[C@@H](CCC(N)=O)C(=O)N[C@@H](CCCCN)C(=O)N[C@@H](CCCCN)C(=O)N[C@@H](CC(N)=O)C(=O)N[C@@H](CCC(=O)O)C(=O)N[C@@H](CCC(=O)O)C(=O)N[C@@H](CCC(=O)O)C(=O)N[C@@H](CC(C)C)C(=O)N[C@@H](CCCCN)C(=O)N[C@@H](CCCCN)C(N)=O` (Ac-WEEWDKKIEEYTKKIEELIKKSEEYQKKNEEELKK-NH2): the EC50 in test [1] worked out at 2.2 nM. In test [2], the Tm came to 76.3 °C. For the same compound, in test [3], the Activity turned out to be 5.5%.

Take `CC[C@H](C)[C@H](NC(=O)[C@H](CC(C)C)NC(=O)[C@H](CCC(=O)O)NC(=O)[C@H](CCC(=O)O)NC(=O)[C@@H](NC(=O)[C@H](CCCCN)NC(=O)[C@H](CCCCN)NC(=O)[C@@H](NC(=O)[C@H](Cc1ccc(O)cc1)NC(=O)[C@H](CCC(=O)O)NC(=O)[C@H](CCC(=O)O)NC(=O)[C@@H](NC(=O)[C@H](CCCCN)NC(=O)[C@H](CCCCN)NC(=O)[C@H](CC(=O)O)NC(=O)[C@H](Cc1c[nH]c2ccccc12)NC(=O)[C@H](CCC(=O)O)NC(=O)[C@H](CCC(=O)O)NC(=O)[C@H](Cc1c[nH]c2ccccc12)NC(C)=O)[C@@H](C)CC)[C@@H](C)O)[C@@H](C)CC)C(=O)N[C@@H](CCCCN)C(=O)N[C@@H](CCCCN)C(=O)N[C@@H](CO)C(=O)N[C@@H](CCC(=O)O)C(=O)N[C@@H](CCC(=O)O)C(=O)N1CCC[C@H]1C(=O)N[C@@H](CCC(N)=O)C(=O)N[C@@H](CCCCN)C(=O)N[C@@H](CCCCN)C(=O)N[C@@H](CC(N)=O)C(=O)N[C@@H](CCC(=O)O)C(=O)N[C@@H](CCC(=O)O)C(=O)N[C@@H](CCC(=O)O)C(=O)N[C@@H](CC(C)C)C(=O)N[C@@H](CCCCN)C(=O)N[C@@H](CCCCN)C(N)=O` (Ac-WEEWDKKIEEYTKKIEELIKKSEEPQKKNEEELKK-NH2): the EC50 in test [1] was 58 nM. Moreover, in test [2], the Tm stood at 60.2 °C. The Activity in test [3] stood at 0%.

For `CC[C@H](C)[C@H](NC(=O)[C@H](CC(C)C)NC(=O)[C@H](CCC(=O)O)NC(=O)[C@H](CCC(=O)O)NC(=O)[C@@H](NC(=O)[C@H](CCCCN)NC(=O)[C@H](CCCCN)NC(=O)[C@@H](NC(=O)[C@H](Cc1ccc(O)cc1)NC(=O)[C@H](CCC(=O)O)NC(=O)[C@H](CCC(=O)O)NC(=O)[C@@H](NC(=O)[C@H](CCCCN)NC(=O)[C@H](CCCCN)NC(=O)[C@H](CC(=O)O)NC(=O)[C@H](Cc1c[nH]c2ccccc12)NC(=O)[C@H](CCC(=O)O)NC(=O)[C@H](CCC(=O)O)NC(=O)[C@H](Cc1c[nH]c2ccccc12)NC(C)=O)[C@@H](C)CC)[C@@H](C)O)[C@@H](C)CC)C(=O)N[C@@H](CCCCN)C(=O)N[C@@H](CCCCN)C(=O)N[C@@H](CO)C(=O)N[C@@H](CCC(=O)O)C(=O)N[C@@H](CCC(=O)O)C(=O)N[C@@H](CCC(=O)O)C(=O)N[C@@H](CCC(N)=O)C(=O)N[C@@H](CCCCN)C(=O)N[C@@H](CCCCN)C(=O)N[C@@H](CC(N)=O)C(=O)N[C@@H](CCC(=O)O)C(=O)N[C@@H](CCC(=O)O)C(=O)N[C@@H](CCC(=O)O)C(=O)N[C@@H](CC(C)C)C(=O)N[C@@H](CCCCN)C(=O)N[C@@H](CCCCN)C(N)=O` (Ac-WEEWDKKIEEYTKKIEELIKKSEEEQKKNEEELKK-NH2), the EC50 in test [1] came to 2.4 nM. Besides, in test [2], the midpoint of thermal melting (Tm) was determined as 76.2 °C. In addition, the Activity in test [3] was 4.3%.

In the case of `CC[C@H](C)[C@H](NC(=O)[C@H](CC(C)C)NC(=O)[C@H](CCC(=O)O)NC(=O)[C@H](CCC(=O)O)NC(=O)[C@@H](NC(=O)[C@H](CCCCN)NC(=O)[C@H](CCCCN)NC(=O)[C@@H](NC(=O)[C@H](Cc1ccc(O)cc1)NC(=O)[C@H](CCC(=O)O)NC(=O)[C@H](CCC(=O)O)NC(=O)[C@@H](NC(=O)[C@H](CCCCN)NC(=O)[C@H](CCCCN)NC(=O)[C@H](CC(=O)O)NC(=O)[C@H](Cc1c[nH]c2ccccc12)NC(=O)[C@H](CCC(=O)O)NC(=O)[C@H](CCC(=O)O)NC(=O)[C@H](Cc1c[nH]c2ccccc12)NC(C)=O)[C@@H](C)CC)[C@@H](C)O)[C@@H](C)CC)C(=O)N[C@@H](CCCCN)C(=O)N[C@@H](CCCCN)C(=O)N[C@@H](CO)C(=O)N[C@@H](CCC(=O)O)C(=O)N[C@@H](CCC(=O)O)C(=O)N[C@@H](C)C(=O)N[C@@H](CCC(N)=O)C(=O)N[C@@H](CCCCN)C(=O)N[C@@H](CCCCN)C(=O)N[C@@H](CC(N)=O)C(=O)N[C@@H](CCC(=O)O)C(=O)N[C@@H](CCC(=O)O)C(=O)N[C@@H](CCC(=O)O)C(=O)N[C@@H](CC(C)C)C(=O)N[C@@H](CCCCN)C(=O)N[C@@H](CCCCN)C(N)=O` (Ac-WEEWDKKIEEYTKKIEELIKKSEEAQKKNEEELKK-NH2), in test [1], the EC50 came to 1.6 nM. In test [2], the Tm came out at 76.1 °C. Further, the Activity in test [3] was found to be 6.6%.

Regarding `CC[C@H](C)[C@H](NC(=O)[C@H](CC(C)C)NC(=O)[C@H](CCC(=O)O)NC(=O)[C@H](CCC(=O)O)NC(=O)[C@@H](NC(=O)[C@H](CCCCN)NC(=O)[C@H](CCCCN)NC(=O)[C@@H](NC(=O)[C@H](Cc1ccc(O)cc1)NC(=O)[C@H](CCC(=O)O)NC(=O)[C@H](CCC(=O)O)NC(=O)[C@@H](NC(=O)[C@H](CCCCN)NC(=O)[C@H](CCCCN)NC(=O)[C@H](CC(=O)O)NC(=O)[C@H](Cc1c[nH]c2ccccc12)NC(=O)[C@H](CCC(=O)O)NC(=O)[C@H](CCC(=O)O)NC(=O)[C@H](Cc1c[nH]c2ccccc12)NC(C)=O)[C@@H](C)CC)[C@@H](C)O)[C@@H](C)CC)C(=O)N[C@@H](CCCCN)C(=O)N[C@@H](CCCCN)C(=O)N[C@@H](CO)C(=O)N[C@@H](CCC(=O)O)C(=O)N[C@@H](CCC(=O)O)C(=O)N[C@@H](Cc1ccccc1)C(=O)N[C@@H](CCC(N)=O)C(=O)N[C@@H](CCCCN)C(=O)N[C@@H](CCCCN)C(=O)N[C@@H](CC(N)=O)C(=O)N[C@@H](CCC(=O)O)C(=O)N[C@@H](CCC(=O)O)C(=O)N[C@@H](CCC(=O)O)C(=O)N[C@@H](CC(C)C)C(=O)N[C@@H](CCCCN)C(=O)N[C@@H](CCCCN)C(N)=O` (Ac-WEEWDKKIEEYTKKIEELIKKSEEFQKKNEEELKK-NH2), the EC50 in test [1] worked out at 2.6 nM. For the same compound, the melting temperature (Tm) in test [2] stood at 76.7 °C. Also, in test [3], the Activity amounted to 5.7%.

Turning to `CC[C@H](C)[C@H](NC(=O)[C@H](CC(C)C)NC(=O)[C@H](CCC(=O)O)NC(=O)[C@H](CCC(=O)O)NC(=O)[C@@H](NC(=O)[C@H](CCCCN)NC(=O)[C@H](CCCCN)NC(=O)[C@@H](NC(=O)[C@H](Cc1ccc(O)cc1)NC(=O)[C@H](CCC(=O)O)NC(=O)[C@H](CCC(=O)O)NC(=O)[C@@H](NC(=O)[C@H](CCCCN)NC(=O)[C@H](CCCCN)NC(=O)[C@H](CC(=O)O)NC(=O)[C@H](Cc1c[nH]c2ccccc12)NC(=O)[C@H](CCC(=O)O)NC(=O)[C@H](CCC(=O)O)NC(=O)[C@H](Cc1c[nH]c2ccccc12)NC(C)=O)[C@@H](C)CC)[C@@H](C)O)[C@@H](C)CC)C(=O)N[C@@H](CCCCN)C(=O)N[C@@H](CCCCN)C(=O)N[C@@H](CO)C(=O)N[C@@H](CCC(=O)O)C(=O)N[C@@H](CCC(=O)O)C(=O)NCC(=O)N[C@@H](CCC(N)=O)C(=O)N[C@@H](CCCCN)C(=O)N[C@@H](CCCCN)C(=O)N[C@@H](CC(N)=O)C(=O)N[C@@H](CCC(=O)O)C(=O)N[C@@H](CCC(=O)O)C(=O)N[C@@H](CCC(=O)O)C(=O)N[C@@H](CC(C)C)C(=O)N[C@@H](CCCCN)C(=O)N[C@@H](CCCCN)C(N)=O` (Ac-WEEWDKKIEEYTKKIEELIKKSEEGQKKNEEELKK-NH2), the concentration for a half-maximal effect (EC50) in test [1] was determined as 2.3 nM. For the same compound, the Tm in test [2] is 71 °C. The Activity in test [3] was 3.8%.

With `CC[C@H](C)[C@H](NC(=O)[C@H](CC(C)C)NC(=O)[C@H](CCC(=O)O)NC(=O)[C@H](CCC(=O)O)NC(=O)[C@@H](NC(=O)[C@H](CCCCN)NC(=O)[C@H](CCCCN)NC(=O)[C@@H](NC(=O)[C@H](Cc1ccc(O)cc1)NC(=O)[C@H](CCC(=O)O)NC(=O)[C@H](CCC(=O)O)NC(=O)[C@@H](NC(=O)[C@H](CCCCN)NC(=O)[C@H](CCCCN)NC(=O)[C@H](CC(=O)O)NC(=O)[C@H](Cc1c[nH]c2ccccc12)NC(=O)[C@H](CCC(=O)O)NC(=O)[C@H](CCC(=O)O)NC(=O)[C@H](Cc1c[nH]c2ccccc12)NC(C)=O)[C@@H](C)CC)[C@@H](C)O)[C@@H](C)CC)C(=O)N[C@@H](CCCCN)C(=O)N[C@@H](CCCCN)C(=O)N[C@@H](CO)C(=O)N[C@@H](CCC(=O)O)C(=O)N[C@@H](CCC(=O)O)C(=O)N[C@@H](CC(C)C)C(=O)N[C@@H](CCC(N)=O)C(=O)N[C@@H](CCCCN)C(=O)N[C@@H](CCCCN)C(=O)N[C@@H](CC(N)=O)C(=O)N[C@@H](CCC(=O)O)C(=O)N[C@@H](CCC(=O)O)C(=O)N[C@@H](CCC(=O)O)C(=O)N[C@@H](CC(C)C)C(=O)N[C@@H](CCCCN)C(=O)N[C@@H](CCCCN)C(N)=O` (Ac-WEEWDKKIEEYTKKIEELIKKSEELQKKNEEELKK-NH2), in test [1], the EC50 stood at 2.7 nM. Moreover, in test [2], the Tm was found to be 83.8 °C. For the same compound, the Activity in test [3] is 8.2%.
